4 molecules from US11234970B2, “Parasitic pest control agents comprising pyridone compounds as active ingredients and methods for using the same” (MITSUI CHEMICALS AGRO, INC., priority 2017, dated 2022) can be followed below.

The test system of this series is heartworm microfillaria. The series is described as follows: Heartworm microfillaria mortality test (Test Example 1). It is filed as in vitro. Conditions: final concentration 100 μg/ml in culture broth; after culturing for 7 days; microfillaria collected from infected dogs. Here is the method:
Compound Nos. 32, 53, 54 and 55 were each dissolved in dimethyl sulfoxide to 10 mg/ml. These dimethyl sulfoxide solutions were diluted 100-fold to a final concentration of 100 μg/ml with the culture broth containing heartworm microfillaria collected from dogs infected with heartworm. The mortality rate of heartworm microfillaria was investigated after culturing for 7 days.
As a result, the mortality rate was 100% in each of the treatment groups.

Each structure is given as a SMILES string.

As for `CCn1c(-c2c(F)cccc2F)c(-c2cc(OC)ccc2Cl)cc(Cl)c1=O` [Compound 54, 3-chloro-5-(2-chloro-5-methoxyphenyl)-6-(2,6-difluorophenyl)-1-ethylpyridine-2(1H)-one], the “mortality rate of heartworm microfillaria” value (shortened to “mortality rate”) stood at 100%.

For `CCn1c(-c2c(F)cccc2F)c(-c2cc(OC)ccc2Cl)ccc1=O` [Compound 53, 5-(2-chloro-5-methoxyphenyl)-6-(2,6-difluorophenyl)-1-ethylpyridine-2(1H)-one], the “mortality rate” value is listed as 100%.

For `CCn1c(-c2c(F)cccc2F)c(-c2cc(OC)ccc2Cl)cc(Br)c1=O` [Compound 55], the “mortality rate” value is listed as 100%.

For the molecule `CCn1c(-c2c(F)cccc2F)c(-c2cc(OC)cc(OC)c2Cl)ccc1=O` [Compound 32], the “mortality rate” value was 100%.
